Assay results published in patent publication US12691141B2, “Use of micro- and nano-MgH2 compound particles in inhibition of leishmania infection and treatment of leishmaniasis” (SHANGHAI JIAO TONG UNIVERSITY, priority 2020, dated 2026).

Experiments:
[1] = tested on: Leishmania; experiment: Cure time of skin/mucosal ulcer and impaired organ function caused by Leishmania; conditions: in vivo
[2] = tested on: Leishmaniabraziliensis; experiment: Skin ulceration of Leishmania-infected hamsters; assay type: in vivo, hamsters (Mesocricetus auratus); conditions: 200 μg/mL subcutaneous injection at ulcer site 100 μL/mouse/d
Protocol: 2) Research on the treatment with micro- and nano-MgH2 compound particles: • 2.1 MgH2 compound particles with a particle diameter of 100 nm to 1,000 nm were first dissolved in a phosphoric acid buffer to prepare 5 concentration groups (1 mg/100 uL, 3 mg/100 uL, 5 mg/100 uL, 10 mg/100 uL, and 15 mg/100 uL). • 2.2 A Leishmaniabraziliensis-infected mouse model was established, which was specified as follows:
Various hamsters (Mesocricetus auratus) were selected, the lower dorsal margin was shaved, and Leishmania (1 million/100 uL/mouse) was injected subcutaneously at 2 cm of an upper margin of a tail. […] MgH2 compound particles (with a particle size of 100 nm to 1,000 nm) at different concentrations (100 uL) were smeared to a skin lesion of an infected hamster once every 24 h continuously for 14 d. An untreated group (namely, a blank control group, infected mice were not treated) and an antimony preparation subcutaneous injection group (sodium antimony gluconate (5-valent antimony preparation, 200 μg/mL) was injected subcutaneously at an ulcer site 100 μL/mouse/d) were set.

[3] = existing studies; cited from earlier work

Substance: sodium antimony gluconate [Antimony preparation]
- cure time [1]: 1 to 3 months
- Healing rate of a skin ulceration wound ([2]; day 0): 0%
- Healing rate of a skin ulceration wound ([2]; day 3): 15.3 ± 2.0%
- Healing rate of a skin ulceration wound ([2]; day 7): 75.2 ± 4.8%
- Healing rate of a skin ulceration wound ([2]; day 14): 88.9 ± 5.1%
- side effects [3]: serious liver and kidney function damage
